Test results from PubChem BioAssay AID248 (DTP/NCI, 2004).
“And” between values parts separate entries of the source, which are not always exact repeats. Identical values can stand only once. Inconclusive results and toxic doses are left out.

System: L1210 leukemia ip in BDF1 mice, survival T/C
Assay: NCI In Vivo Anticancer Drug Screen. Data for tumor model L1210 Leukemia (intraperitoneal) in B6D2F1 (BDF1) mice
Details: endpoint: mean survival time, higher = longer survival
How it was run: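 Mice bearing the transplanted tumor received compound or vehicle. Survival of the treated group was divided by that of the vehicle-treated control group to give the ratio.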

## C1CN1c1nc(N2CC2)nc(N2CC2)n1
dose: 0.05 mg/kg/injection, schedule: Q01DX009 (ip), vehicle: saline
  T/C: 94 % of control
dose: 0.06 mg/kg/injection, schedule: Q01DX009 (ip), vehicle: saline
  T/C: 95 % of control
dose: 0.06 mg/kg/injection, schedule: Q01DX Z (ip), vehicle: saline
  T/C: 97 % of control
dose: 0.1 mg/kg/injection, schedule: Q01DX009 (ip), vehicle: saline
  T/C: 105 % of control
dose: 0.12 mg/kg/injection, schedule: Q01DX005 (ip), vehicle: saline
  T/C: 115 % of control
dose: 0.12 mg/kg/injection, schedule: Q01DX009 (ip), vehicle: saline
  T/C: 107 % of control
dose: 0.12 mg/kg/injection, schedule: Q01DX009 (sc), vehicle: saline
  T/C: 101 % of control
dose: 0.12 mg/kg/injection, schedule: Q01DX010 (ip), vehicle: saline
  T/C: 110 % of control
dose: 0.12 mg/kg/injection, schedule: Q01DX Z (ip), vehicle: carboxymethylcellulose (CMC)
  T/C: 113 % of control
dose: 0.12 mg/kg/injection, schedule: Q01DX Z (ip), vehicle: saline
  T/C: 118 % of control
dose: 0.13 mg/kg/injection, schedule: Q01DX009 (ip), vehicle: saline
  T/C: 110 % of control
dose: 0.13 mg/kg/injection, schedule: Q01DX010 (oral), vehicle: carboxymethylcellulose (CMC)
  T/C: 119 % of control
dose: 0.16 mg/kg/injection, schedule: Q01DX001 (ip), vehicle: saline
  T/C: 109 % of control and 120 % of control
dose: 0.2 mg/kg/injection, schedule: Q01DX009 (ip), vehicle: saline
  T/C: 121 % of control
dose: 0.25 mg/kg/injection, schedule: Q01DX001 (ip), vehicle: saline
  T/C: 103 % of control
dose: 0.25 mg/kg/injection, schedule: Q01DX005 (ip), vehicle: saline
  T/C: 115 % of control
dose: 0.25 mg/kg/injection, schedule: Q01DX006 (iv), vehicle: saline
  T/C: 119 % of control
dose: 0.25 mg/kg/injection, schedule: Q01DX009 (sc), vehicle: saline
  T/C: 123 % of control
dose: 0.25 mg/kg/injection, schedule: Q01DX Z (ip), vehicle: carboxymethylcellulose (CMC)
  T/C: 119 % of control
dose: 0.25 mg/kg/injection, schedule: Q01DX Z (sc), vehicle: saline
  T/C: 124 % of control
dose: 0.48 mg/kg/injection, schedule: Q## X008 (ip), vehicle: saline
  T/C: 110 % of control
dose: 0.48 mg/kg/injection, schedule: Q## X016 (ip), vehicle: saline
  T/C: 103 % of control
dose: 0.48 mg/kg/injection, schedule: Q## X024 (ip), vehicle: saline
  T/C: 107 % of control
dose: 0.5 mg/kg/injection, schedule: Q01DX001 (ip), vehicle: saline
  T/C: 107 % of control
dose: 0.5 mg/kg/injection, schedule: Q01DX001 (sc), vehicle: saline
  T/C: 112 % of control
dose: 0.5 mg/kg/injection, schedule: Q01DX006 (iv), vehicle: saline
  T/C: 150 % of control
dose: 0.5 mg/kg/injection, schedule: Q01DX009 (oral), vehicle: saline
  T/C: 107 % of control
dose: 0.5 mg/kg/injection, schedule: Q01DX010 (oral), vehicle: carboxymethylcellulose (CMC)
  T/C: 164 % of control
dose: 0.5 mg/kg/injection, schedule: Q01DX Z (im), vehicle: saline
  T/C: 156 % of control
dose: 0.5 mg/kg/injection, schedule: Q04DX003 (ip), vehicle: Klucel (hydroxypropylcellulose) (HPC)
  T/C: 117 % of control
dose: 0.5 mg/kg/injection, schedule: Q## X002 (ip), vehicle: saline
  T/C: 109 % of control
dose: 0.5 mg/kg/injection, schedule: Q## X003 (ip), vehicle: saline
  T/C: 110 % of control and 115 % of control
dose: 0.5 mg/kg/injection, schedule: Q## X006 (ip), vehicle: saline
  T/C: 107 % of control
dose: 0.5 mg/kg/injection, schedule: Q## X024 (ip), vehicle: saline
  T/C: 102 % of control
dose: 0.5 mg/kg/injection, schedule: Q#A X Z (ip), vehicle: saline
  T/C: 151 % of control
dose: 0.67 mg/kg/injection, schedule: Q01DX005 (ip), vehicle: saline
  T/C: 153 % of control and 158 % of control
dose: 0.7 mg/kg/injection, schedule: Q01DX001 (ip), vehicle: saline
  T/C: 103 % of control and 105 % of control
dose: 0.8 mg/kg/injection, schedule: Q01DX009 (ip), vehicle: saline
  T/C: 115 % of control
dose: 0.86 mg/kg/injection, schedule: Q01DX001 (ip), vehicle: saline
  T/C: 159 % of control
dose: 0.96 mg/kg/injection, schedule: Q## X008 (ip), vehicle: saline
  T/C: 106 % of control
dose: 0.96 mg/kg/injection, schedule: Q## X016 (ip), vehicle: saline
  T/C: 111 % of control
dose: 1.0 mg/kg/injection, schedule: Q01DX001 (sc), vehicle: saline
  T/C: 115 % of control
dose: 1.0 mg/kg/injection, schedule: Q01DX006 (iv), vehicle: saline
  T/C: 114 % of control
